PMC5012625 (International Journal of Nanomedicine, 2016)

Legend:
[1] = Pharmacokinetic study in rats; assay type: in vivo; settings: female, Sprague Dawley, rat, plasma
[2] = Particle size and surface charge by dynamic light scattering; assay type: physicochemical; settings: dynamic light scattering analyzer, Nano ZS, mean ± SD

Row | AUC(0-inf) ([1]; 0.1 mg kg^−1) [ng·h/mL] | AUC(0-t) ([1]; 0.1 mg kg^−1) [ng·h/mL] | Cmax ([1]; 0.1 mg kg^−1) [ng/mL] | Tmax ([1]; 0.1 mg kg^−1) [min] | F rel ([1]; 0.1 mg/kg) [%] | AUC(0-inf) ([1]; sc, 0.02 mg kg^−1) [ng·h/mL] | AUC(0-t) ([1]; sc, 0.02 mg kg^−1) [ng·h/mL] | Cmax ([1]; sc, 0.02 mg kg^−1) [ng/mL] | Tmax ([1]; sc, 0.02 mg kg^−1) [min] | Zeta potential [2] | Compound
1 | 0.0448 | 0.0309 | 0.0392 ± 0.0198 | 30 | 1.06 ± 0.85 | 0.603 | 0.585 | 0.711 ± 0.0978 | 15 |  | CC[C@H](C)[C@H](NC(=O)[C@H](CCC(=O)O)NC(=O)[C@H](CO)NC(=O)[C@@H](NC(=O)[C@@H](N)CO)C(C)C)C(=O)N[C@@H](CCC(N)=O)C(=O)N[C@@H](CC(C)C)C(=O)N[C@@H](CCSC)C(=O)N[C@@H](Cc1cnc[nH]1)C(=O)N[C@@H](CC(N)=O)C(=O)N[C@@H](CC(C)C)C(=O)NCC(=O)N[C@@H](CCCCN)C(=O)N[C@@H](Cc1cnc[nH]1)C(=O)N[C@@H](CC(C)C)C(=O)N[C@@H](CC(N)=O)C(=O)N[C@@H](CO)C(=O)N[C@@H](CCSC)C(=O)N[C@@H](CCC(=O)O)C(=O)N[C@@H](CCCN=C(N)N)C(=O)N[C@H](C(=O)N[C@@H](CCC(=O)O)C(=O)N[C@@H](Cc1c[nH]c2ccccc12)C(=O)N[C@@H](CC(C)C)C(=O)N[C@@H](CCCN=C(N)N)C(=O)N[C@@H](CCCCN)C(=O)N[C@@H](CCCCN)C(=O)N[C@@H](CC(C)C)C(=O)N[C@@H](CCC(N)=O)C(=O)N[C@@H](CC(=O)O)C(=O)N[C@H](C(=O)N[C@@H](Cc1cnc[nH]1)C(=O)N[C@@H](CC(N)=O)C(=O)N[C@@H](Cc1ccccc1)C(=O)O)C(C)C)C(C)C [rhPTH (1-34)]
2 |  |  |  |  |  |  |  |  |  | 6.27±1.29 | lysine-linked deoxycholic acid [LysDOCA]
